Results as given in patent publication US8912136B2, “Methods and compositions related to clot-binding compounds” (Sanford-Burnham Medical Research Institute, priority 2009, dated 2014).
Where no end group is shown, it is not given here. FAM = 5(6)-carboxyfluorescein; Ahx = NCCCCCC(=O)O

Assays:
[1] = system: orthotopic 22Rv1 xenograft tumors; assay: In vivo homing of FAM-labeled CREKA and methylated CREKA peptides; parameters: species or system mouse
Procedure: Tumor accumulation of CREKA peptide and its N-methylated and C-methylated variants. The accumulation of N-methylated and C-methylated derivatives of CREKA was measured in mice bearing orthotropic 22Rv-1 xenograft tumors. The mice were intravenously injected with 200 μg of FAM-conjugated CREKA or methylated CREKA peptides derivatives. The peptides were allowed to circulate for 3 hrs. The mice were then perfused through the heart with PBS, and organs were collected and the fluorescence was measured under UV light. The fluorescence was analyzed with Image J software. Most N/C-methylated CREKA analogs produced stronger fluorescence compared to the unmodified CREKA. […] In FIG. 10B the enhanced fluorescence of CR(NMe)EKA is shown in the tumor compared to both CREKA and C(NMe)REKA peptide. It is shown that FAM-labeled CREKA peptide in which the glutamic acid is N-methylated accumulates in tumor tissue more strongly than unmodified CREKA.
Orthotopic prostate cancers were used when they reached 0.5-1 cm in size. Synthetic peptides labeled with fluorescein (approximately 200 μg) were intravenously injected into tumor-bearing mice and allowed to circulate for 15 minutes to 3 hours. The mice were perfused with PBS through the heart under anesthesia, and tissues were collected and observed under UV light (Illumatool Bright Light System LT-9900, Lightools Research, Encinitas, Calif.), and then processed for immunofluorescence or immunohistochemistry.

[2] = Peptide stability in vivo (NW-bound peptide recovered from blood, mass spectrometry); parameters: species or system mouse
Procedure: The peptides were conjugated with a linker that bridges the NW and a cysteine residue on the peptide, forming a disulfide with the OPSS group. The peptide-coated NW were injected into animals, and blood was collected 15 minutes and 3 hours after the injection. The plasma was separated and NW were collected by ultracentrifugation (100,000×g for 10 minutes at 4° C.). Proteins bound to the NW were removed by incubation with glycine-HCl, pH 2.8 on a magnetic LS columns (MACS separation columns, Miltenyi Biotec, Bergisch Gladbach, Germany). The peptides were cleaved from the NW by incubating with 10 mM dithiothreitol for 30 minutes at room temperature. The iron oxide was separated from the peptide by ultracentrifugation (100,000×g for 10 minutes at 4° C.) and the supernatant fractions containing the peptide were analyzed by matrix-assisted laser desorption ionization-time of flight (MALDI-TOF) mass spectrometry.

mouse plasma clots = assay: Nanoparticle binding to plasma clots in vitro; conditions: FIG. 1D
Procedure: Phage and nanoparticle binding to clots. Phage binding to clotted plasma proteins was determined as described (Pilch 2006). CREKA-SPIO and control SPIO were added to freshly formed plasma clots in the presence or absence of free CREKA peptide. After 10 min incubation, the clots were washed 4 times in PBS, transferred to a new tube and digested in 100 μl concentrated nitric acid. The digested material was diluted in 2 ml distilled water and the iron concentration was determined using inductively coupled plasma-optical emission spectroscopy (ICP-OES, PerkinElmer, Norwalk, Conn.).

plasma clots = assay: Binding to plasma clots (affinity); conditions: data not shown
[3] = system: MDA-MB-435 human breast cancer xenografts; assay: Tumor homing of intravenously injected fluorescent CREKA peptide; format: in vivo, mouse
Text: (§1) CREKA peptide. A tumor-homing peptide was used to construct targeted nanoparticles. […] The most frequently represented peptide sequence in the selected phage preparation was CREKA (cys-arg-glu-lys-ala; SEQ ID NO:1). The CREKA peptide was synthesized with a fluorescent dye attached to the N-terminus and the in vivo distribution of the peptide was studied in tumor-bearing mice. […] The peptide formed a distinct meshwork in the tumor stroma (FIG. 5), and it also highlighted the blood vessels in the tumors.
(§2) Phage screening, tumors and peptides. In vivo screening of a peptide library with the general structure of CX7C (SEQ ID NO: 4), where C is cysteine and X is any amino acid, was carried out as described (Oh 2004) using 65- to 75-day-old transgenic MMTV PyMT mice (Hutchinson 2000). These mice express the polyoma virus middle T antigen (MT) under the transcriptional control of the mouse mammary tumor virus (MMTV), leading to the induction of multi-focal mammary tumors in 100% of carriers. MDA-MB-435 tumors in nude mice and peptide synthesis have been described (Laakkonen 2002; Laakkonen 2004). B16F1 murine melanoma tumors were grown in fibrinogen null mice (Suh 1995) and their normal littermates and used when they reached 0.5-1 cm in size (Pilch 2006).

PyMT tumors = assay: as above; format: in vivo, mouse; conditions: intravenous; fluorescent dye at N-terminus; minutes to hours after the injection
Text: as §1, §2

B16F1 melanomas = assay: CREKA peptide homing in fibrinogen null mice and normal littermates; format: in vivo, mouse; conditions: intravenous
Procedure: Tumors contain a meshwork of clotted plasma proteins in the tumor stroma and the walls of vessels, but no such meshwork is detectable in normal tissues (Dvorak 1985; Abe 1999; Pilch 2006). The mesh-like pattern produced by the CREKA peptide in tumors prompted the study of whether clotted plasma proteins can be the target of this peptide. The peptide was tested in fibrinogen knockout mice, which lack the fibrin meshwork in their tumors. […] Its structure makes it an attractive peptide to use in nanoparticle targeting because, unlike other clot-binding peptides, which are cyclic 10 amino-acid peptides (Pilch 2006), CREKA is linear and contains only 5 amino acids. Moreover, the sulfhydryl group of the single cysteine residue is not required to provide binding activity and can be used to couple the peptide to other moieties.
Phage screening, tumors and peptides. In vivo screening of a peptide library with the general structure of CX7C (SEQ ID NO: 4), where C is cysteine and X is any amino acid, was carried out as described (Oh 2004) using 65- to 75-day-old transgenic MMTV PyMT mice (Hutchinson 2000). These mice express the polyoma virus middle T antigen (MT) under the transcriptional control of the mouse mammary tumor virus (MMTV), leading to the induction of multi-focal mammary tumors in 100% of carriers. […]

With “cys-arg-glu-lys-ala ({FAM-Ahx}-CREKA; not fully specified; printed as cys-arg-glu-lys-ala)” the “fluorescence in the tumors” value ([1]; 30 minutes after the injection) was “equally strong fluorescence”, the “decrease of tumor fluorescence” value ([1]; after 3 hours) was 70% and the “peptide abundance in blood samples” value ([2]; after 15 minutes of circulation) was “equally abundant”. The “peptide in blood samples” value ([2]; after 3 hours) was “undetectable”, the “effect of free peptide on CREKA-SPIO binding to clotted plasma proteins” value (mouse plasma clots) was “inhibited” and the Kd (plasma clots) was 6 µM. For the same substance, the “whole animal imaging: elimination and liver accumulation” value ([3]; 30 μg Alexa Fluor 647-labeled CREKA, 6 hours) was “excreted into the urine and does not accumulate in the liver”, the “CREKA peptide detection in tumors” value ([3]; intravenous, fluorescent dye at N-terminus, minutes to hours after the injection) was “readily detectable” and the “CREKA peptide detection in normal tissues” value ([3]; intravenous, fluorescent peptide) was “essentially undetectable”. For the same substance, the “CREKA peptide detection in tumors” value (PyMT tumors) was “readily detectable”, the “accumulation in tumors grown in fibrinogen null mice” value (B16F1 melanomas; fibrinogen null mice) was “failed to accumulate” and the “accumulation in tumors grown in normal littermates” value (B16F1 melanomas; normal littermates of the null mice) was “formed a brightly fluorescent meshwork”.
